These are literature values, as cited in patent publication US9901098B2, “Methods for plant protection” (TDA Research, Inc, priority 2015, dated 2018).

Turning to `[O][Cl+][O-]` [ClO2, chlorine dioxide], in the data set on human workers, the “permissible exposure level (PEL) in air” value is reported as 0.1 ppm. In addition, in the data set with microbes (aqueous solutions), the “concentration that effectively kills microbes” value is recorded as not above 1 ppm. The “time required to kill microbes” value in the data set with microbes (solutions containing 1 ppm ClO2 or less) is reported as “as short as one minute”.
